{"source": "patent US7572252B1", "about": "(priority 1995, dated 2009)", "experiment": "Transdermal electrotransport goserelin delivery at two constant current densities (Example 4)", "format": "in vivo, human", "experimental": "This study was undertaken to evaluate the relationship between current density and drug flux in the transdermal electrotransport delivery of goserelin. The study involved the application of electrotransport devices, applying constant current, to 12 normal male volunteers for a duration of 8 hours.\nThe two electrotransport treatment regimens in this study differed only in applied current density levels. The electrotransport devices delivered goserelin through the skin from polyvinyl alcohol (PVOH)-based donor hydrogels having a skin-contact surface area of 4 cm^2. The gels contained an aqueous goserelin solution. The current density levels used in this study were 50 and 100 μA/cm^2. After an 8 hour treatment period, the electrotransport devices were removed. The skin site was then washed to remove any residual goserelin. All 12 volunteers received each treatment seven days apart.\nFor each treatment, seven blood samples were taken over a 24 hour period commencing with the application of current from the electrotransport devices. Serum goserelin concentrations from each patient were used to calculate mean drug flux and the mean total amount of drug delivered.", "data": [{"smiles": "CC(C)C[C@H](NC(=O)[C@@H](COC(C)(C)C)NC(=O)[C@H](Cc1ccc(O)cc1)NC(=O)[C@H](CO)NC(=O)[C@H](Cc1c[nH]c2ccccc12)NC(=O)[C@H](Cc1cnc[nH]1)NC(=O)[C@@H]1CCC(=O)N1)C(=O)N[C@@H](CCCNC(=N)N)C(=O)N1CCC[C@H]1C(=O)NNC(N)=O", "note": "[goserelin]", "values": [{"measurement": "average transdermal goserelin flux", "setting": "50 microA/cm^2 constant current, 4 cm^2, 8 h", "result": 5.8, "unit": "microgram per hour"}, {"measurement": "average transdermal flux of goserelin", "setting": "100 microA/cm^2 constant current, 4 cm^2, 8 h", "result": 21.6, "unit": "µg/h"}, {"measurement": "increase in drug flux", "setting": "current density rises from 50 to 100 μA/cm^2", "result": "almost four-fold increase"}]}]}
